The results in this text go back to US20080025972A1, “Treating sex steriod responsive disorders” (priority 2006, published 2008).

One assay concerns prostate cancer. As to the kind of experiment: Treatment of patients with prostate cancer (Working Examples). Format: in vivo, human.
Assay [1] deals with PSA protein expression in LNCaP cells. As to the kind of experiment: PSA protein expression in LNCaP cells (immunoblot). In kind it is cell-based. The note with it: nitric oxide synthesis inhibited; DHT 10 nmol/L 24 hours. The method, then: The experiments of Background Example 4 were repeated but instead of determining androgen receptor activation, PSA level was measured by PSA protein expression in LNCaP cells. LNCaP cells were incubated in phenol red-free RPMI cell culture medium containing 5% charcoal-stripped fetal bovine serum (CSS) for 48 hours and then treated with dihydrotestosterone (DHT) (10 nmol/L) or vehicle control (ethanol) for 24 hours. Immunoblots were conducted using anti-PSA antibodies to measure PSA protein expression. Same filters were immunoblotted using anti-actin antibodies as control to establish equal loading of proteins.

The subject of the next assay is breast cancer. As to the kind of experiment: Treatment of patient with breast cancer (Working Example X). Format: in vivo, human. To be noted: person, 40 mg PO BID, over 6 months.
The test system of the next assay is androgen receptor. To be noted: stimulated 24 hours.
The test system of another assay is LNCaP cells. To be noted: 5-10 nmol/L, 48 hours, wild type cells. As for the experimental part:
(§1) Cell proliferation was determined in cellular assays carried out as follows:
(§2) LNCaP cells (obtained from ATCC) and seeded at 2.5×10^4/well were incubated in charcoal-stripped serum for 24-48 hours prior to stimulation with DHT (5-10 nmole/L) for an additional 48 hours. The number of viable cells (that exclude trypan blue) was counted using a light microscope and a hemocytometer.

The test system of assay [2] is e-NOS overexpressing prostate cancer cells. To be noted: 5-10 nmol/L. The method, then: as §1, §2
In assay [3] the target is T1, androgen receptor protein (Homo sapiens, UniProt P10275).
T1 construct: purchased Cambridge Bioscience, England
T1 sequence (P10275 1-920): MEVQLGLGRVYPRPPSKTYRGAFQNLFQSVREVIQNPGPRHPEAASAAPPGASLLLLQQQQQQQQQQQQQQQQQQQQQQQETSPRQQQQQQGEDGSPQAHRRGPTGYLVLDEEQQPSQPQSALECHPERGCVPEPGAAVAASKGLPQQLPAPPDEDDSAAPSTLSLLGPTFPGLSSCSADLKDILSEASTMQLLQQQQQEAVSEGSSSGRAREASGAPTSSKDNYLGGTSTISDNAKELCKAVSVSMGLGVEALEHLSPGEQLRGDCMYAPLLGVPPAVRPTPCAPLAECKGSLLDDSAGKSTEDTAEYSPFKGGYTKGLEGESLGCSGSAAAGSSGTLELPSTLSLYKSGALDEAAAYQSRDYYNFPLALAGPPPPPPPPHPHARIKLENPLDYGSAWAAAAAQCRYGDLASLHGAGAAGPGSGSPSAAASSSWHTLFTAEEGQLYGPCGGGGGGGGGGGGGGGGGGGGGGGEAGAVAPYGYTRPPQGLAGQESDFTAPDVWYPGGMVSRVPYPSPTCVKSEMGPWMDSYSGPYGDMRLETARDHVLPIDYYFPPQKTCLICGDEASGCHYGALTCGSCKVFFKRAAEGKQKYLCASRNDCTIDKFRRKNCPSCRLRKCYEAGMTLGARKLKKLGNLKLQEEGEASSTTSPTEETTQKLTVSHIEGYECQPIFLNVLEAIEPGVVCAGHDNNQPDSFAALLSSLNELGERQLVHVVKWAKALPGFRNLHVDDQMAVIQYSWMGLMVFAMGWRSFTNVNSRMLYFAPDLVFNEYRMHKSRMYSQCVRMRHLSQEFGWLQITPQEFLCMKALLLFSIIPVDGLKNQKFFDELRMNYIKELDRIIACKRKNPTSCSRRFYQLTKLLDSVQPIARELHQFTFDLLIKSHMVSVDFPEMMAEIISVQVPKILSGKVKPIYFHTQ
As to the kind of experiment: S-nitrosylation of purified androgen receptor, biotin switch assay. Format: biochemical. To be noted: anaerobic conditions; GSH as control. The source says:
Purified androgen receptor protein (obtained from Cambridge Bioscience, England) was exposed to nitric oxide by means of contact with nitrosoglutathione (GSNO) under anaerobic conditions. Glutathione (GSH) was used as a control. […] Cell Biol 3, 193-197 (2001).

`N[C@H](CCC(=O)N[C@H](CS)C(=O)NCC(=O)O)C(=O)O` [D-glutathione] yielded a PSA level drop in the assay with prostate cancer (person, 150 mg orally 4 times/day, over 4 months) of 50%.

Take `COC(=O)[C@@H](N)CCCNC(=N)N[N+](=O)[O-]` [L-NAME]: the PSA expression result in assay [1] is listed as “more PSA was expressed”.

Take `O=[N+]([O-])O[C@@H]1CO[C@H]2[C@@H]1OC[C@@H]2O` [isosorbide mononitrate]: the PSA level decline in the assay with prostate cancer (person, 40 mg PO BID, 3 months) stood at 50%. In the assay with breast cancer, the lung metastases result is “regress”.

`O=[N+]([O-])OCC(CO[N+](=O)[O-])O[N+](=O)[O-]` [nitroglycerin]: in the assay on prostate cancer (topical 0.8 mg/hour, after progression on busaralin), the “progression of the disease measured by PSA and bony metastases” value is listed as “slows”.

For `CCNC(=O)[C@@H]1CCCN1C(=O)[C@H](CCCNC(=N)N)NC(=O)[C@H](CC(C)C)NC(=O)[C@@H](COC(C)(C)C)NC(=O)[C@H](Cc1ccc(O)cc1)NC(=O)[C@H](CO)NC(=O)[C@H](Cc1c[nH]c2ccccc12)NC(=O)[C@H](Cc1cnc[nH]1)NC(=O)[C@@H]1CCC(=O)N1` [busaralin], the disease course result with prostate cancer (person with body metastases, busaralin treatment) was “the disease progresses”.

For the compound `C[C@]12CCC(=O)C[C@@H]1CC[C@@H]1[C@@H]2CC[C@]2(C)[C@@H](O)CC[C@@H]12` [androgen, dihydrotestosterone], the “androgen receptor activation by androgen (control case)” value with androgen receptor is reported as “activated androgen receptor”. For the same compound, the values for the cell growth entry (with LNCaP cells; in assay [2]) were “increased cell growth” and “no effect on cell growth”, respectively.

In the assay on prostate cancer (human, in vivo, po), `N[C@@H](CCC(=O)N[C@@H](CSN=O)C(=O)NCC(=O)O)C(=O)O` [nitrosoglutathione] showed a PSA level decrease of 50%. For the same compound, the “S-nitrosylation of androgen receptor” value in assay [3] is “S-Nitrosylation of androgen receptor was detected”.

As for `O=[N+]([O-])O[C@H]1CO[C@H]2[C@@H]1OC[C@H]2O[N+](=O)[O-]` [isosorbide dinitrate], the PSA level entry in the assay on prostate cancer (person, 20 mg PO BID, over 3 months) is listed as “stabilizes”.
